The compounds below were run against PRMT5/MEP50 protein complex (Homo sapiens (Human), UniProt O14744) (assay: PRMT5 biochemical assay (3H-SAM methylation of H4(1-21) peptide, filter plate scintillation)). Details: 10 nM PRMT5/MEP50 complex, 200 nM H4(1-21) peptide, 1 uM SAM, 25 minute incubation at room temperature.
Method: Biochemical Assay Methods
Compounds were solubilized in DMSO and serially diluted, using 3-fold dilutions, into 100% DMSO at a concentration 50-fold greater than the desired assay concentration. Following dilution, 1 ul was added to an empty 96-well microtiter plate. PRMT5/MEP50 protein complex was combined with H4(1-21) peptide ([…]) in PRMT5 assay buffer (50 mM Tris pH 8.5, 50 mM NaCl, 5 mM MgCl2, 1 mM EDTA, 1 mM TCEP) and 44 ul was added to the microtiter plate containing compound. S-Adenosyl-L-methionine (SAM) was prepared by combining ^3H labelled SAM with unlabelled SAM in PRMT5 assay buffer such that the final SAM concentration was 10 uM and the specific activity was 0.2 uCi/ul. The reaction was initiated by adding 5 ul of SAM stock to the microtiter plate. The final reaction conditions were 10 nM PRMT5/MEP50 complex, 200 nM peptide and 1 uM SAM. Following a 25 minute incubation at room temperature, the reaction was stopped with the addition of 100 uL of 20% TCA. The 3H-peptide product was captured using a 96-well filter plate (MSIPN4B, Millipore) and washed 5 times with PBS buffer. Scintillation fluid (100 ul) was added to the dried filter plate and counted in a liquid scintillation counter. IC50 values were determined by fitting the data to the standard 4-parameter dose response equation using Pfizer proprietary software.
Results for the biochemical assay of examples are summarized in Table 1, shown as IC50 values in μM.

PRMT5/MEP50 protein complex, sequence (O14744 other isoform, or with tags, fused parts or gaps): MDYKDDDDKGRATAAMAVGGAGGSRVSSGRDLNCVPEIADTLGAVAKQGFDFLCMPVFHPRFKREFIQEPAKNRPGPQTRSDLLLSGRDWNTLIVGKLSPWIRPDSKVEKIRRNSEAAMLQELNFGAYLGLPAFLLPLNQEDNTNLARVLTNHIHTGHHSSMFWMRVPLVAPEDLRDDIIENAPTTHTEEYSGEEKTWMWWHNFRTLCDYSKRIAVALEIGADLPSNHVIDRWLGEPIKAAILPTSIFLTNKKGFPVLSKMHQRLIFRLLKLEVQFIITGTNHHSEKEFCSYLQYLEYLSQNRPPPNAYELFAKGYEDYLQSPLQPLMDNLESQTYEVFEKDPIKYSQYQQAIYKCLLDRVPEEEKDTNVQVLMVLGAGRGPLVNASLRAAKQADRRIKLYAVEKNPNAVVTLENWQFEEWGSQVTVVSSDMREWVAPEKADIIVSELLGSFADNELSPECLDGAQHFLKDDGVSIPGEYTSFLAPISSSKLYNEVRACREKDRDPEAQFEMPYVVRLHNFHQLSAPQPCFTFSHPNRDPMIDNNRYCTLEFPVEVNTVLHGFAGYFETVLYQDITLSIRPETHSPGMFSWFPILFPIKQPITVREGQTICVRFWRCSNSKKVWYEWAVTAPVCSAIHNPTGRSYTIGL
PRMT5/MEP50 protein complex, sequence (Q9BQA1 whole entry partner): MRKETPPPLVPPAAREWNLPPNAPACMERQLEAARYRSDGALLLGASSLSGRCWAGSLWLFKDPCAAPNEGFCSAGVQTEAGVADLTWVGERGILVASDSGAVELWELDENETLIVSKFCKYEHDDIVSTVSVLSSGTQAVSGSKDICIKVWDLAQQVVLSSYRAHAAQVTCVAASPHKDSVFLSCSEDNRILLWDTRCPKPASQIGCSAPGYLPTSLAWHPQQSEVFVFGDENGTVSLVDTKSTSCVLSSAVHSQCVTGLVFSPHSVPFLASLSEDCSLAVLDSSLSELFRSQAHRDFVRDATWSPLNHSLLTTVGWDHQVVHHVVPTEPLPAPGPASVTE

First: Cc1ncnc2c1ccn2[C@@H]1C[C@H]([C@@](C)(O)c2ccc(F)cc2)[C@@H](O)[C@H]1O [Example 20, (1S,2R,3S,5R)-3-[(1R)-1-(4-fluorophenyl)-1-hydroxyethyl]-5-(4-methyl-7H-pyrrolo[2,3-d]pyrimidin-7-yl)cyclopentane-1,2-diol]
Second: Cc1ncnc2c1ccn2[C@@H]1C[C@H](C(F)c2ccc(F)cc2)[C@@H](O)[C@H]1O (single isomer, unassigned) [Example 21]
The IC50 of the first is 79-fold higher: 17100 nM for the first, 217 nM for the second. The second is the more potent here.

First: CN(c1ncnc(N)n1)[C@@H]1C[C@H]([C@@H](O)c2ccc(F)c(F)c2)[C@@H](O)[C@H]1O [Example 38, (1R,2S,3R,5R)-3-[(4-amino-1,3,5-triazin-2-yl)(methyl)amino]-5-[(R)-(3,4-difluorophenyl)(hydroxy)methyl]cyclopentane-1,2-diol]
Second: Cc1ncnc(N(C)[C@@H]2C[C@H]([C@H](O)c3ccc(F)c(F)c3)[C@@H](O)[C@H]2O)n1 [Example 46, (1S,2R,3R,5R)-3-[(S)-(3,4-difluorophenyl)(hydroxy)methyl]-5-[methyl(4-methyl-1,3,5-triazin-2-yl)amino]cyclopentane-1,2-diol]
The IC50 of the first is 53-fold higher: 15700 nM for the first, 297 nM for the second. The second is the more potent here.

Compared with `CNCc1cc(F)ccc1O[C@H]1C[C@@H](n2ccc3c(C)ncnc32)[C@H](O)[C@@H]1O` [Example 72, (1S,2S,3S,5R)-3-(4-fluoro-2-((methylamino)methyl)phenoxy)-5-(4-methyl-7H-pyrrolo[2,3-d]pyrimidin-7-yl)cyclopentane-1,2-diol], `Cc1ncnc2c1ccn2[C@@H]1C[C@H](Oc2ccc(F)cc2CN(C)C)[C@@H](O)[C@H]1O` [Example 71, (1S,2S,3S,5R)-3-(2-((dimethylamino)methyl)-4-fluorophenoxy)-5-(4-methyl-7H-pyrrolo[2,3-d]pyrimidin-7-yl)cyclopentane-1,2-diol] is 3.1-fold higher in IC50: 22 nM for the first, 69 nM for the second. The first is the more potent here.

Going from `Cc1ncnc2c1ccn2[C@@H]1C[C@H](Oc2cccc3c2C(N)CCC3)[C@@H](O)[C@H]1O` (single isomer, unassigned) [Example 187] to `Cc1ncnc2c1ccn2[C@@H]1C[C@H](Oc2cccc3c2CCNC3)[C@@H](O)[C@H]1O` [Example 80, (1S,2S,3R,5S)-3-(4-methyl-7H-pyrrolo[2,3-d]pyrimidin-7-yl)-5-((1,2,3,4-tetrahydroisoquinolin-5-yl)oxy)cyclopentane-1,2-diol], the IC50 falls from 971 nM to 130 nM (7.5-fold).

First: Cc1ncnc2c1ccn2[C@@H]1C[C@H](Oc2cccc3c2CN(C)CC3)[C@@H](O)[C@H]1O [Example 83, (1S,2S,3S,5R)-3-((2-methyl-1,2,3,4-tetrahydroisoquinolin-8-yl)oxy)-5-(4-methyl-7H-pyrrolo[2,3-d]pyrimidin-7-yl)cyclopentane-1,2-diol]
Second: Cc1ncnc2c1ccn2[C@@H]1C[C@H](Oc2cccc3c2CN[C@H](C)CO3)[C@@H](O)[C@H]1O [Example 208, (1S,2S,3S,5R)-3-(((R)-3-methyl-2,3,4,5-tetrahydrobenzo[f][1,4]oxazepin-6-yl)oxy)-5-(4-methyl-7H-pyrrolo[2,3-d]pyrimidin-7-yl)cyclopentane-1,2-diol]
The IC50 of the first is 2.5-fold higher: 20 nM for the first, 8 nM for the second.

Compared with `Cc1ncnc2c1ccn2[C@@H]1C[C@H](Oc2cc(C(F)F)c(F)c3c2CNCC3)[C@@H](O)[C@H]1O` [Example 190, (1S,2S,3S,5R)-3-((6-(difluoromethyl)-5-fluoro-1,2,3,4-tetrahydroisoquinolin-8-yl)oxy)-5-(4-methyl-7H-pyrrolo[2,3-d]pyrimidin-7-yl)cyclopentane-1,2-diol], `Cc1cc(O[C@H]2C[C@@H](n3ccc4c(C)ncnc43)[C@H](O)[C@@H]2O)c2c(c1F)CCNC2` [Example 155, (1S,2S,3S,5R)-3-((5-fluoro-6-methyl-1,2,3,4-tetrahydroisoquinolin-8-yl)oxy)-5-(4-methyl-7H-pyrrolo[2,3-d]pyrimidin-7-yl)cyclopentane-1,2-diol] is 2-fold higher in IC50: 1 nM for the first, 2 nM for the second. The first is the more potent here.

Going from `CN(c1ccncn1)[C@@H]1C[C@H]([C@H](O)c2ccc(F)c(F)c2)[C@@H](O)[C@H]1O` [Example 31, (1S,2R,3R,5R)-3-[(S)-(3,4-difluorophenyl)(hydroxy)methyl]-5-[methyl(pyrimidin-4-yl)amino]cyclopentane-1,2-diol] to `CN(c1ccnc(N)n1)[C@@H]1C[C@H]([C@@H](O)c2ccc(F)c(F)c2)[C@@H](O)[C@H]1O` [Example 40, (1R,2S,3R,5R)-3-[(2-aminopyrimidin-4-yl)(methyl)amino]-5-[(R)-(3,4 difluorophenyl)(hydroxy)methyl] cyclopentane-1,2-diol], the IC50 rises from 466 nM to 2040 nM (4.4-fold). The first is the more potent here.

Going from `O[C@@H]1[C@H](O)[C@@H]([C@@H](O)c2ccc(F)c(F)c2)C[C@H]1Nc1ncnc2[nH]ccc12` [Example 28, (1S,2R,3R,5R)-3-[(R)-(3,4-difluorophenyl)(hydroxy)methyl]-5-(7H-pyrrolo[2,3-d]pyrimidin-4-ylamino)cyclopentane-1,2-diol] to `N#Cc1cccc2c(N[C@@H]3C[C@H](C(O)c4ccc(F)c(F)c4)[C@@H](O)[C@H]3O)ncnc12` (single isomer, unassigned) [Example 30, 4-({(1R;2S;3R;4R)-4-[(3;4-difluorophenyl)(hydroxy)methyl]-2;3-dihydroxycyclopentyl}amino)quinazoline-8-carbonitrile], the IC50 rises from 5770 nM to greater than 200000 nM.

First: Cc1ncnc2c1ccn2[C@@H]1C[C@H]([C@@H](O)c2ccc(Cl)cc2CN)[C@@H](O)[C@H]1O [Example 54, (1S,2R,3R,5R)-3-((R)-(2-(aminomethyl)-4-chlorophenyl)(hydroxy)methyl)-5-(4-methyl-7H-pyrrolo[2,3-d]pyrimidin-7-yl)cyclopentane-1,2-diol]
Second: Nc1ncnc2c1ccn2[C@@H]1C[C@H]([C@H](O)c2ccc(Cl)c(F)c2)[C@@H](O)[C@H]1O [Example 23, (1R,2S,3R,5R)-3-(4-amino-7H-pyrrolo[2,3-d]pyrimidin-7-yl)-5-((S)-(4-chloro-3-fluorophenyl)(hydroxy)methyl)cyclopentane-1,2-diol]
The IC50 of the first is 4.5-fold lower: 126 nM for the first, 572 nM for the second. The first is the more potent here.

First: Cc1ncnc2c1ccn2[C@@H]1C[C@H](C2(O)CC2)[C@@H](O)[C@H]1O [Example 17, (1S,2R,3S,5R)-3-(1-hydroxycyclopropyl)-5-(4-methyl-7H-pyrrolo[2,3-d]pyrimidin-7-yl)cyclopentane-1,2-diol]
Second: CO[C@H]1C[C@@H](n2ccc3c(C)ncnc32)[C@H](O)[C@@H]1O [Example 60, (1S,2S,3S,5R)-3-methoxy-5-(4-methyl-7H-pyrrolo[2,3-d]pyrimidin-7-yl)cyclopentane-1,2-diol]
The IC50 of the first is lower: 2770 nM for the first, greater than 200000 nM for the second. The first is the more potent here.

Compared with `Cc1ncnc2c1ccn2[C@@H]1C[C@H](Oc2cc(F)c(F)cc2OCCN)[C@@H](O)[C@H]1O` [Example 152, (1S,2S,3S,5R)-3-(2-(2-aminoethoxy)-4,5-difluorophenoxy)-5-(4-methyl-7H-pyrrolo[2,3-d]pyrimidin-7-yl)cyclopentane-1,2-diol], `Cc1ncnc2c1ccn2[C@@H]1C[C@H](Oc2ccc(Cl)c(Cl)c2CN)[C@@H](O)[C@H]1O` [Example 150, (1S,2S,3S,5R)-3-(2-(aminomethyl)-3,4-dichlorophenoxy)-5-(4-methyl-7H-pyrrolo[2,3-d]pyrimidin-7-yl)cyclopentane-1,2-diol] is 8.9-fold higher in IC50: 8 nM for the first, 71 nM for the second. The first is the more potent here.

First: Cc1nc(N)nc(N(C)[C@@H]2C[C@H]([C@H](O)c3ccc(F)c(F)c3)[C@@H](O)[C@H]2O)n1 [Example 41, (1R,2S,3R,5R)-3-[(4-amino-6-methyl-1,3,5-triazin-2-yl)(methyl)amino]-5-[(S)-(3,4-difluorophenyl) (hydroxy)methyl]cyclopentane-1,2-diol]
Second: Nc1ncnc2c1c(F)cn2[C@@H]1C[C@H]([C@@H](O)c2ccc(F)cc2)[C@@H](O)[C@H]1O [Example 26, (1R,2S,3R,5R)-3-(4-amino-5-fluoro-7H-pyrrolo[2,3-d]pyrimidin-7-yl)-5-[(R)-(4-fluorophenyl)(hydroxy)methyl]cyclopentane-1,2-diol]
The IC50 of the first is 15-fold lower: 46 nM for the first, 704 nM for the second. The first is the more potent here.

First: Cc1ncnc2c1ccn2[C@@H]1C[C@H]([C@H](CN)c2ccc(F)cc2)[C@@H](O)[C@H]1O [Example 51, (1S,2R,3R,5R)-3-[(1S)-2-amino-1-(4-fluorophenyl)ethyl]-5-(4-methyl-7H-pyrrolo[2,3-d]pyrimidin-7-yl)cyclopentane-1,2-diol]
Second: Cc1ncnc2c1ccn2[C@@H]1C[C@H](Oc2ccc(F)cc2C(N)=O)[C@@H](O)[C@H]1O [Example 70, 2-(((1S,2S,3S,4R)-2,3-dihydroxy-4-(4-methyl-7H-pyrrolo[2,3-d]pyrimidin-7-yl)cyclopentyl)oxy)-5-fluorobenzamide]
The IC50 of the first is 20-fold lower: 676 nM for the first, 13600 nM for the second. The first is the more potent here.

`Cc1ncnc2c1ccn2[C@@H]1C[C@H](Oc2cc(-c3cnco3)cc3c2CNCC3)[C@@H](O)[C@H]1O` [Example 170, (1S,2S,3R,5S)-3-(4-methyl-7H-pyrrolo[2,3-d]pyrimidin-7-yl)-5-((6-(oxazol-5-yl)-1,2,3,4-tetrahydroisoquinolin-8-yl)oxy)cyclopentane-1,2-diol] and `Cc1cc(O[C@H]2C[C@@H](n3cc(F)c4c(N)ncnc43)[C@H](O)[C@@H]2O)c2c(c1F)CCNC2` [Example 113, (1S,2S,3R,5S)-3-(4-amino-5-fluoro-7H-pyrrolo[2,3-d]pyrimidin-7-yl)-5-((5-fluoro-6-methyl-1,2,3,4-tetahydroisoquinolin-8-yl)oxy)cyclopentane-1,2-diol] are the same in IC50: 1 nM for the first, 1 nM for the second.

Reference: patent publication US10709709B2, “Substituted carbonucleoside derivatives useful as anticancer agents” (Pfizer Inc., priority 2016, dated 2020)
